SMILES | melting point [°C]
O=C(O)C(=O)O.O=c1[nH]c2ccc(C(c3nc(-c4ccccc4)cs3)n3ccnc3-c3ccccc3)cc2c(-c2cccc(Cl)c2)c1CO (centres unmarked) | 149
Cn1cncc1C(O)(c1ccc2c(c1)c(-c1cccc(Cl)c1)cc(=O)n2C)c1nccs1 (racemic) [Example B3 F2, (±)-4-(3-chlorophenyl)-6-[hydroxy(1-methyl-1H-imidazol-5-yl)-2-thiazolylmethyl]-1-methyl-2(1H)-quinolinone] | 246
Cn1cncc1C(O)(c1ccoc1)c1ccc2c(c1)c(-c1cccc(Cl)c1)cc(=O)n2C (racemic) [Example B6, (±)-4-(3-chlorophenyl)-6-[3-furanylhydroxy(1-methyl-1H-imidazol-5-yl)methyl]-1-methyl-2(1H)-quinolinone] | 248
Cn1cncc1C(N)(c1ccoc1)c1ccc2c(c1)c(-c1cccc(Cl)c1)cc(=O)n2C (racemic) [Example B8, (±)-6-[amino-3-furanyl(1-methyl-1H-imidazol-5-yl)methyl]-4-(3-chlorophenyl)-1-methyl-2(1H)-quinolinone] | 197
Cn1cncc1C(O)(c1ccc2c(c1)c(-c1cccc(Cl)c1)cc(=O)n2C)c1nccn1C (centres unmarked) [Example B7, 4-(3-chlorophenyl)-6-[hydroxy(1-methyl-1H-imidazol-2-yl)(1-methyl-1H-imidazol-5-yl)methyl]-1-methyl-2(1H)-quinolinone] | 130

Reference: patent US7067531B2, “Farnesyl transferase inhibiting 6-heterocyclylmethyl quinolinone derivatives” (priority 2000, dated 2006)
